Laboratory results as given in paper PMC3115942 (PLoS ONE, 2011).
Read-outs that look alike come from different tables or passages of the source.

Legend:
[1] = tested on: Gli1 mRNA expression in Sufu−/− MEF; assay: Real time PCR of Gli1 mRNA in Sufu−/− MEF; assay type: cell-based, mouse; settings: 10 µM, 72 hours
Description: (§1) Cells were lysed for RNA extraction after 48 or 72 hours of treatment. Total RNA from cultured cells or tumor tissue was isolated using the GeneElute miniprep kit (Sigma-Aldritch) following the manufacturer^'s instructions. cDNA was synthesized from the isolated mRNA using the Retroscript kit (Ambion), and real-time PCR was carried out using the SYBR Green PCR master mix (Stratagene) according to the manufacturer^'s instructions with an Mx3000P cycler (Stratagene). The relative concentrations of cDNA present in each sample were calculated by the MxPro software (Stratagene), normalized for GAPDH (mRNA from cells) or GUS (mRNA from tumors). For real time PCR primer sequences see Table 6. For the tumor tissue real time PCR, previously described human and mouse specific primers against GUSB, PTCH1 and GLI1were used.

[2] = tested on: Gli1 or Gli2 (GliBS-Luc, NIH3T3 cells); assay: GliBS-Luc reporter in NIH3T3 cells with forced Gli1 or Gli2 expression; assay type: cell-based; settings: 10 µM, 48 hours
Description: Vectors were obtained from the following: GliBS-Luc reporter (gift from H. Sasaki), pBluescript (pBS) (Stratagene), FL-HA-GLI1 (Gli1) and Gli2-GFP (Gli2) (gifts from R. Toftgård), Super8XTOPFlash, and NFkB-luc (Panomics). 10 ng renilla luciferase (pRL-TK) (Promega) was used as a transfection control. HEK293 and NIH3T3 cells were seeded at 80,000 per well in 48-well plates on day 1, and were co-transfected on day 2 using a total of 0.4 µg plasmid per well mixed at 1∶3 in FUGENE6 according to manufacturer^'s instructions. On day 3, control medium and activating medium (50% L1 conditioned medium, 50% Shh conditioned medium or medium containing 10 ng/mL recombinant rcrTNF-α (R&D Systems)) +/− 10–20 µM MS-0022 were added, using DMSO as a control (the NFkB pathway inhibitor Bay11-7082 was used as a control in the NFkB assay). Samples were analyzed on day 4 or 5 using the Dual Luciferase assay kit according to manufacturer^'s instructions. Graphs display relative or fold reporter activity, and are calculated from a mean ratio of firefly reporter luminescence/pRL-TK luminescence with standard deviation error bars (n = 3). The experiments have been repeated with similar results.

[3] = tested on: GLI1 mRNA in SUIT-2 cells; assay: Real time PCR of GLI1 mRNA in SUIT-2; assay type: cell-based, human; settings: 48 hrs
Description: as §1

SUIT-2 cells = assay: Soft agar colony formation assay, SUIT-2; assay type: cell-based, human; settings: 14 days
Description: 2000 PANC-1 or SUIT-2 cells were suspended in 1.5 mL growth media containing 0.35% agar (Oxoid), over a 1.5 mL base layer containing 0.5% agar in 6-well plates. The plates were incubated for 14 days (SUIT-2) and 21 days (PANC-1) and then stained for 1 h with 1 ml of 0.02% crystal violet (Sigma-Aldrich), and colonies were counted according to sizes; <0.2 mm (small), 0.2–1 mm (medium) and >1 mm (large). Data represent average numbers with standard deviation bars (n = 3). The experiments have been repeated with similar result.

58 kinases = assay: Millipore kinase diversity panel (whole panel); assay type: biochemical; settings: 10 µM
[4] = Pharmacokinetics in mouse plasma; assay type: in vivo; settings: 5 mg/kg; for Cmax / AUC(0-inf) / AUC(0-t) / half-life / k el: mouse plasma; for concentration at 5 min / concentration at 15 min / concentration at 30 min / concentration at 60 min / concentration at 120 min / concentration at 240 min: read-out: blood concentration
Description: For pharmacokinetic (PK) analysis, 5 mg/kg MS-0022 was given by IV, PO and IP administration to 7–8 week old male C57BL mice (mouse musculus), and blood was collected after 5, 15, 30, 60, 120, and 240 min, with n = 3. Animals were sacrificed and blood samples (∼0.5 mL each) were collected from the abdominal aorta into EDTA-containing tubes, centrifuged (2–8°C for ∼10 minutes at ∼10000 xg) and plasma harvested into single tubes for each animal and frozen (∼−70°C). Blood samples were analyzed by ChemDiv^'s bioanalytical department. The maximum concentration (Cmax), total drug exposure (the area under the curve to the last quantifiable concentration (AUClast) and as the AUClast value extrapolated to infinity (AUCinf), calculated as AUCinf = AUClast+C(t)last/Kel, where C(t)last is the last measurable concentration), half-life (T1/2) calculated as ln(2)/Kel and Kel calculated as the slope of the terminal linear portion of the concentration/time curve. The WinNonlin Professional 5.2 software (Pharsight Corp.) was used for the calculation of the PK parameters.

PANC-1 xenograft = assay: PANC-1 subcutaneous xenograft in CB17/SCID mice; assay type: in vivo, mouse
Description: as §1
For PANC-1 xenografts, 4–6 week old CB17/SCID mice were injected with 5×10^6 PANC-1 (n = 6 per group) cells in 200 µl PBS subcutaneously on day 1. IP treatment with 50 mg/kg MS-0022 began when median tumor size reached 25 mm^2 (day 27). MS-0022 was pulverized using a pestle, and was mixed into a stable suspension in water containing 1% Tween 80 (Sigma-Aldrich). Mice were treated with MS-0022 or solvent for a period of 30 days after initiation in a 5 day injection 2 day pause scheme, and tumor size was measured throughout using calipers (mm^2). After 30 days the mice were sacrificed and tumors dissected and weighed. The PANC-1 xenograft endpoint was taken two days after the last compound treatment.

[5] = QD, IP at 50 mg/kg, 5 day injection/2 day pause, end of treatment, vs control solvent

## Cc1cccn2cc(-c3ccc(NC(=O)c4ccccc4Br)cc3)nc12 [MS-0022, 2-bromo-N-(4-(8-methylimidazo[1,2-a]pyridin-2-yl)phenyl)benzamide]
[1]
  reduction of relative Gli1 mRNA levels in Sufu−/− MEFs: 50%
[2]; 50% Shh conditioned medium
  inhibition of Gli1 or Gli2 when pathway further activated by Shh: partial inhibition
[2]; without Shh
  Hh pathway inhibitory effect at the level of forced Gli1 or Gli2 expression: not detected
[3]
  GLI1 mRNA levels, SUIT-2: reduced GLI1 mRNA levels
SUIT-2 cells
  soft agar colony formation, SUIT-2: reduction in large (Figure 2C–D, and G) and medium sized colonies
58 kinases
  inhibition of kinases of the diversity panel (in words): did not significantly inhibit
[4]; male, C57BL, mouse, plasma, ip, IP, read-out: Cmax
  Cmax: 378 ng/mL
[4]; male, C57BL, mouse, plasma, iv, IV, read-out: Cmax
  Cmax: 934 ng/mL
[4]; male, C57BL, mouse, plasma, po, PO, read-out: Cmax
  Cmax: 912 ng/mL
[4]; male, C57BL, mouse, plasma, IP
  concentration at 5 min: 30 ng/mL
  concentration at 15 min: 261 ng/mL
  concentration at 30 min: 378 ng/mL
  concentration at 60 min: 158 ng/mL
  concentration at 120 min: 56 ng/mL
  concentration at 240 min: 15 ng/mL
[4]; male, C57BL, mouse, plasma, IV
  concentration at 5 min: 934 ng/mL
  concentration at 15 min: 712 ng/mL
  concentration at 30 min: 626 ng/mL
  concentration at 60 min: 620 ng/mL
  concentration at 120 min: 253 ng/mL
  concentration at 240 min: 73 ng/mL
[4]; male, C57BL, mouse, plasma, PO
  concentration at 5 min: 468 ng/mL
  concentration at 15 min: 912 ng/mL
  concentration at 30 min: 461 ng/mL
  concentration at 60 min: 437 ng/mL
  concentration at 120 min: 180 ng/mL
  concentration at 240 min: 51 ng/mL
[4]; male, C57BL, plasma, po, mouse, read-out: Per oral bioavailability
  bioavailability: 98%
[4]; male, C57BL, IP
  AUC(0-inf): 437 ng·h/mL
  AUC(0-t): 417 ng·h/mL
  half-life: 54.8 min
  k el: 0.00021 s⁻¹
[4]; male, C57BL, IV
  AUC(0-inf): 1560 ng·h/mL
  AUC(0-t): 1460 ng·h/mL
  half-life: 59.3 min
  k el: 0.000195 s⁻¹
[4]; male, C57BL, PO
  AUC(0-inf): 1140 ng·h/mL
  AUC(0-t): 1070 ng·h/mL
  half-life: 59.1 min
  k el: 0.000195 s⁻¹
[4]; IP
  Cmax: 377.7 ng/mL
[4]; IV
  Cmax: 934.3 ng/mL
PANC-1 xenograft; [5]
  reduction in tumor volume, PANC-1 xenograft: 38%
  reduction in tumor weight, PANC-1 xenograft: 33%
PANC-1 xenograft; endpoint of the experiment, 50 mg/kg IP
  human (tumor) or mouse (stroma) Ptch1 or Gli1 mRNA levels in PANC-1 tumors: no statistically relevant difference
